The record followed here is BindingDB's records for doi:10.1021/ml100192b (2011).

Test [1] is described as follows: Inhibition of maltase in mouse intestinal input by glucose release assay.
A short description of test [2]: Inhibition of lactase in mouse intestinal input by glucose release assay.

Usually IC50 stands for the concentration needed to halve the response being measured. Read a low IC50 as greater potency. Regarding `CCCCCCCOCCCCCN1C[C@H](O)[C@@H](O)[C@H](O)[C@H]1CO` [N-Heptoxypentyl-1-deoxynojirimycin], the IC50 was 7 µM in test [1] and 250 µM in test [2].

Take `CCCCCCCOCCCCCN1C[C@H](O)[C@@H](O)[C@H](O)[C@@H]1CO` [N-Heptoxypentyl-L-ido-1-deoxynojirimycin]: the IC50 in test [1] was > 1000 µM; in test [2], 250 µM.
